According to US7417025B2, “Use of poly-α2,8-sialic acid mimetic peptides to modulate NCAM functions” (Centre National de la Recherche Scientifique, priority 2002, dated 2008):

Assays:
[1] = system: Glial Fibrillary acidic Protein (GFAP) expression; test: Reactive gliosis after spinal cord injury (GFAP staining); type: in vivo, mouse; settings: D5 following surgery
Protocol: At D5, lesioned animals which received either p65 (n=3) or reversed p65 (n=3) were transcardiacally perfused. Spinal cords were sectioned in the sagittal plane at 20 μm intervals in blocks of 10 mm length at the lesion site. To examine lesion extent, Nissl staining was performed in series of 1-in-6 sections in all animals. Series of 1-in-3 sections were stained with the MenB anti-PSA (mouse IgM) and/or anti-GFAP (mouse IgG) antibodies.
To assess the effect of the peptide, quantification of the Glial Fibrillary acidic Protein (GFAP) expression as an index of reactive gliosis, was undertaken in a subset of animals taken D5 following surgery. These animals were selected in a blinded manner for quantification. 3 p65 (10 slices per animal) and 3 p65-reverse (10 slices per animal) animals were analyzed. Double-labelling was performed with MenB anti-PSA antibody. Quantification was also performed in a blinded manner.

[2] = system: mAb 735; test: Competitive ELISA of biotinylated peptide-BSA conjugates on anti-PSA mAb; type: binding; settings: for Binding of peptide to mAb 735 in competitive ELISA (percentage of binding): biotinylated peptide-BSA conjugate
Text: • mAb 735 and 30H12 • MaxiSorp™ plates (NUNC) for coating the antibody: ELISA plates • microtiter plates (NUNC) for peptide dilution: dilution plates • Biotinylated peptide-BSA conjugates prepared as above described • Extravidin alkaline phosphatase-avidin conjugate (SIGMA E2636) • p-nitrophenyl-phosphatase alkaline substrate (SIGMA 104-105) 2.1.2) Buffers • PBS pH 7.4 • Blocking solution: 0.5% BSA in PBS • TBS • TBST: TBS containing 0.05% Tween 20 • Extravidin alkaline phosphatase-avidin conjugate solution: 1/5000 in TBST • Alkaline phosphatase substrate solution; 1 tablet in 5 ml 50 mM NaHCO3, 1 mM MgCl2 solution, […]) Method
(§1) Maxisorp™ plate wells were coated with 100 μl mAb solution (25 μg/ml) for 2 h at room temperature. The control wells of the ELISA plates were only coated with the blocking solution. In parallel, the peptide-BSA conjugate dilution plates were blocked with 200 μl blocking solution for 2 h. The antibody coated wells and the control wells were blocked with 200 μl blocking solution for 1 h. In parallel the peptide-BSA conjugate dilution plates were washed 6 times with TBST and 120 μl TBST was added to the wells. An appropriate volume of peptide-BSA conjugate solution was added to the first well and the volume adjusted to 140 μl with TBST. The peptide-BSA conjugate in well one was diluted in the ratio 1/7 by taking 20 μl out of the first well and transferring into the second also to achieve the total volume of 140 μl. This was repeated for the remaining wells. The peptide-BSA conjugate dilutions for the control wells were done the same way. The blocked ELISA plates were washed 6 times with TBST and the peptide-BSA conjugate dilutions or 100 μl of the mixed competitor solution was added to the wells. After incubation for 1 h, the wells were washed 10 times with TBST and 100 μl of the alkaline phosphatase substrate solution was added to the wells. The plates were read out after 10 to 60 min using a microplate reader at 405 nm.
(§2) The specificity of peptide p21 (SEQ ID NO: 1) was investigated in a competition ELISA using biotinylated p21-BSA conjugate and a randomized variant of p21 (p22) conjugate as a control. The results presented in Tables X and XI are expressed as percentage of binding by comparison with peptide p21 at the highest concentration (9.45 10^-5 M) which corresponds to 100% binding.

[3] = target: BSA (Bos taurus, UniProt P02769); test: Peptide-BSA conjugate ELISA, control wells coated only with blocking solution (BSA); type: binding; settings: biotinylated peptide-BSA conjugate, BSA-blocked wells, no mAb
Text: • mAb 735 and 30H12 • MaxiSorp™ plates (NUNC) for coating the antibody: ELISA plates • microtiter plates (NUNC) for peptide dilution: dilution plates • Biotinylated peptide-BSA conjugates prepared as above described • Extravidin alkaline phosphatase-avidin conjugate (SIGMA E2636) • p-nitrophenyl-phosphatase alkaline substrate (SIGMA 104-105) 2.1.2) Buffers • PBS pH 7.4 • Blocking solution: 0.5% BSA in PBS • TBS • TBST: TBS containing 0.05% Tween 20 • Extravidin alkaline phosphatase-avidin conjugate solution: 1/5000 in TBST • Alkaline phosphatase substrate solution; 1 tablet in 5 ml 50 mM NaHCO3, 1 mM MgCl2 solution, pH 9.6. • mixed competitor solution: 1 mM colominic acid with a peptide-BSA conjugate gradient in TBST 2.1.3) Method
as §1, §2

[4] = peptide-BSA conjugate, in words

Sequence of BSA (P02769 25-607): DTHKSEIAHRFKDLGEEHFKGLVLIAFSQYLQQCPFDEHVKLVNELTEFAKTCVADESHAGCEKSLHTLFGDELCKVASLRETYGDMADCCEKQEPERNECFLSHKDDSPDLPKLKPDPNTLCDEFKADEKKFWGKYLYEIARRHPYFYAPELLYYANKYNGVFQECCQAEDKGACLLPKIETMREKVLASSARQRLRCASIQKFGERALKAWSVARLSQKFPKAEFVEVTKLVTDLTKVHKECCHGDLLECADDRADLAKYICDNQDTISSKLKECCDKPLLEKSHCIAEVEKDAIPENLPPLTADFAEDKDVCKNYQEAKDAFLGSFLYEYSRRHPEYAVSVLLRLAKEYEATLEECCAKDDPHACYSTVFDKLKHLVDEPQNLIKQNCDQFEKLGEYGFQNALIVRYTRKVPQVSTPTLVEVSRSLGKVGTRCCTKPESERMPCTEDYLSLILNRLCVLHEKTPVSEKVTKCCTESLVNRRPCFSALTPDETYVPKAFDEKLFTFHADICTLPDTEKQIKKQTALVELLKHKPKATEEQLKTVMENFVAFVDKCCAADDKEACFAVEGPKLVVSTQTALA

CSSVTAWTTGCG [p65] was tested, and the “Reduction of reactive gliosis (GFAP staining) compared with reverse p65-treatment” value [1] was 40%.
With DSPLVPFIDFHP [p21] the “Binding of peptide to mAb 735 in competitive ELISA (percentage of binding)” value ([2]; peptide 1.62 10^−9 M, + chondroitin sulfate C) was 50 ± 1%, the “Binding of peptide to mAb 735 in competitive ELISA (percentage of binding)” value ([2]; peptide 1.62 10^−9 M, + colominic acid 1 mM) was 0 ± 1% and the “Binding of peptide to mAb 735 in competitive ELISA (percentage of binding)” value ([2]; peptide 1.62 10^−9 M, no competitor) was 56 ± 4%. For the same sequence, the “Binding of peptide to mAb 735 in competitive ELISA (percentage of binding)” value ([2]; peptide 1.67 10^−5 M, + chondroitin sulfate C) was 99 ± 4%, the “Binding of peptide to mAb 735 in competitive ELISA (percentage of binding)” value ([2]; peptide 1.67 10^−5 M, + colominic acid 1 mM) was 34 ± 3% and the “Binding of peptide to mAb 735 in competitive ELISA (percentage of binding)” value ([2]; peptide 1.67 10^−5 M, no competitor) was 93 ± 10%. For the same sequence, the “Binding of peptide to mAb 735 in competitive ELISA (percentage of binding)” value ([2]; peptide 2.86 10^−9 M, + chondroitin sulfate C) was 11 ± 2%, the “Binding of peptide to mAb 735 in competitive ELISA (percentage of binding)” value ([2]; peptide 2.86 10^−9 M, + colominic acid 1 mM) was 0 ± 0% and the “Binding of peptide to mAb 735 in competitive ELISA (percentage of binding)” value ([2]; peptide 2.86 10^−9 M, no competitor) was 13 ± 1%. For the same sequence, the “Binding of peptide to mAb 735 in competitive ELISA (percentage of binding)” value ([2]; peptide 2.94 10^−6 M, + chondroitin sulfate C) was 99 ± 8%, the “Binding of peptide to mAb 735 in competitive ELISA (percentage of binding)” value ([2]; peptide 2.94 10^−6 M, + colominic acid 1 mM) was 23 ± 1% and the “Binding of peptide to mAb 735 in competitive ELISA (percentage of binding)” value ([2]; peptide 2.94 10^−6 M, no competitor) was 95 ± 1%. The “Binding of peptide to mAb 735 in competitive ELISA (percentage of binding)” value ([2]; peptide 5.04 10^−10 M, + chondroitin sulfate C) was 3 ± 0%, the “Binding of peptide to mAb 735 in competitive ELISA (percentage of binding)” value ([2]; peptide 5.04 10^−10 M, + colominic acid 1 mM) was 0 ± 0% and the “Binding of peptide to mAb 735 in competitive ELISA (percentage of binding)” value ([2]; peptide 5.04 10^−10 M, no competitor) was 2 ± 0%. The “Binding of peptide to mAb 735 in competitive ELISA (percentage of binding)” value ([2]; peptide 5.20 10^−7 M, + chondroitin sulfate C) was 94 ± 7%, the “Binding of peptide to mAb 735 in competitive ELISA (percentage of binding)” value ([2]; peptide 5.20 10^−7 M, + colominic acid 1 mM) was 15 ± 3% and the “Binding of peptide to mAb 735 in competitive ELISA (percentage of binding)” value ([2]; peptide 5.20 10^−7 M, no competitor) was 91 ± 2%. For the same sequence, the “Binding of peptide to mAb 735 in competitive ELISA (percentage of binding)” value ([2]; peptide 8.89 10^−11 M, + chondroitin sulfate C) was 2 ± 0%, the “Binding of peptide to mAb 735 in competitive ELISA (percentage of binding)” value ([2]; peptide 8.89 10^−11 M, + colominic acid 1 mM) was 0 ± 0% and the “Binding of peptide to mAb 735 in competitive ELISA (percentage of binding)” value ([2]; peptide 8.89 10^−11 M, no competitor) was 0 ± 0%. For the same sequence, the “Binding of peptide to mAb 735 in competitive ELISA (percentage of binding)” value ([2]; peptide 9.27 10^−8 M, + chondroitin sulfate C) was 92 ± 2%, the “Binding of peptide to mAb 735 in competitive ELISA (percentage of binding)” value ([2]; peptide 9.27 10^−8 M, + colominic acid 1 mM) was 5 ± 2% and the “Binding of peptide to mAb 735 in competitive ELISA (percentage of binding)” value ([2]; peptide 9.27 10^−8 M, no competitor) was 93 ± 9%. The “Binding of peptide to mAb 735 in competitive ELISA (percentage of binding)” value ([2]; peptide 9.45 10^−5 M, + chondroitin sulfate C) was 96 ± 8%, the “Binding of peptide to mAb 735 in competitive ELISA (percentage of binding)” value ([2]; peptide 9.45 10^−5 M, + colominic acid 1 mM) was 43 ± 3% and the “Binding of peptide to mAb 735 in competitive ELISA (percentage of binding)” value ([2]; peptide 9.45 10^−5 M, no competitor) was 100 ± 11%. For the same sequence, the “Binding of peptide to mAb 735” value [2, 4] was “binds specifically to mAb 735 in a concentration-dependent manner”, the “Effect of chondroitin sulfate C on peptide binding to mAb 735” value [2, 4] was “no influence” and the “Effect of colominic acid on peptide binding to mAb 735” value [2, 4] was “clear inhibition”. For the same sequence, the “Binding of peptide to BSA control wells (percentage of binding)” value ([3]; peptide 1.62 10^−9 M) was 0 ± 0%, the “Binding of peptide to BSA control wells (percentage of binding)” value ([3]; peptide 1.67 10^−5 M) was 1 ± 0% and the “Binding of peptide to BSA control wells (percentage of binding)” value ([3]; peptide 2.86 10^−9 M) was 0 ± 0%. The “Binding of peptide to BSA control wells (percentage of binding)” value ([3]; peptide 2.94 10^−6 M) was 0 ± 0%, the “Binding of peptide to BSA control wells (percentage of binding)” value ([3]; peptide 5.04 10^−10 M) was 0 ± 0% and the “Binding of peptide to BSA control wells (percentage of binding)” value ([3]; peptide 5.20 10^−7 M) was 0 ± 0%. For the same sequence, the “Binding of peptide to BSA control wells (percentage of binding)” value ([3]; peptide 8.89 10^−11 M) was 0 ± 0%, the “Binding of peptide to BSA control wells (percentage of binding)” value ([3]; peptide 9.27 10^−8 M) was 0 ± 0% and the “Binding of peptide to BSA control wells (percentage of binding)” value ([3]; peptide 9.45 10^−5 M) was 3 ± 1%.
